US12065436B2, “Cardiac sarcomere inhibitors” (Cytokinetics, Inc., priority 2018, dated 2024)

Target: bovine cardiac myofibrils (full-length cardiac myosin ATPase in the native sarcomere) (Bos taurus (Bovine), UniProt Q9BE39)
Test: Skinned bovine cardiac myofibril ATPase assay (PK/LDH-coupled)
Format: biochemical
Settings: Ca2+ activating to 75% of maximal rate; for CDMF75 IC15: concentration giving 15% inhibition; for IC50: read-out: CDMF75 IC50
Outline: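 Inhibition of steady-state ATPase read at 340 nm through a PK/LDH-coupled NADH system (0.5 mM NADH, 1.5 mM PEP). Detergent-skinned bovine cardiac myofibrils, 1 mg/mL, were tested at pH 6.8 in PIPES/MgCl2 with 50 μM ATP and calcium adjusted to give pCa50 or pCa75 activation.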

Sequence of bovine cardiac myofibrils (full-length cardiac myosin ATPase in the native sarcomere) (Q9BE39 whole entry): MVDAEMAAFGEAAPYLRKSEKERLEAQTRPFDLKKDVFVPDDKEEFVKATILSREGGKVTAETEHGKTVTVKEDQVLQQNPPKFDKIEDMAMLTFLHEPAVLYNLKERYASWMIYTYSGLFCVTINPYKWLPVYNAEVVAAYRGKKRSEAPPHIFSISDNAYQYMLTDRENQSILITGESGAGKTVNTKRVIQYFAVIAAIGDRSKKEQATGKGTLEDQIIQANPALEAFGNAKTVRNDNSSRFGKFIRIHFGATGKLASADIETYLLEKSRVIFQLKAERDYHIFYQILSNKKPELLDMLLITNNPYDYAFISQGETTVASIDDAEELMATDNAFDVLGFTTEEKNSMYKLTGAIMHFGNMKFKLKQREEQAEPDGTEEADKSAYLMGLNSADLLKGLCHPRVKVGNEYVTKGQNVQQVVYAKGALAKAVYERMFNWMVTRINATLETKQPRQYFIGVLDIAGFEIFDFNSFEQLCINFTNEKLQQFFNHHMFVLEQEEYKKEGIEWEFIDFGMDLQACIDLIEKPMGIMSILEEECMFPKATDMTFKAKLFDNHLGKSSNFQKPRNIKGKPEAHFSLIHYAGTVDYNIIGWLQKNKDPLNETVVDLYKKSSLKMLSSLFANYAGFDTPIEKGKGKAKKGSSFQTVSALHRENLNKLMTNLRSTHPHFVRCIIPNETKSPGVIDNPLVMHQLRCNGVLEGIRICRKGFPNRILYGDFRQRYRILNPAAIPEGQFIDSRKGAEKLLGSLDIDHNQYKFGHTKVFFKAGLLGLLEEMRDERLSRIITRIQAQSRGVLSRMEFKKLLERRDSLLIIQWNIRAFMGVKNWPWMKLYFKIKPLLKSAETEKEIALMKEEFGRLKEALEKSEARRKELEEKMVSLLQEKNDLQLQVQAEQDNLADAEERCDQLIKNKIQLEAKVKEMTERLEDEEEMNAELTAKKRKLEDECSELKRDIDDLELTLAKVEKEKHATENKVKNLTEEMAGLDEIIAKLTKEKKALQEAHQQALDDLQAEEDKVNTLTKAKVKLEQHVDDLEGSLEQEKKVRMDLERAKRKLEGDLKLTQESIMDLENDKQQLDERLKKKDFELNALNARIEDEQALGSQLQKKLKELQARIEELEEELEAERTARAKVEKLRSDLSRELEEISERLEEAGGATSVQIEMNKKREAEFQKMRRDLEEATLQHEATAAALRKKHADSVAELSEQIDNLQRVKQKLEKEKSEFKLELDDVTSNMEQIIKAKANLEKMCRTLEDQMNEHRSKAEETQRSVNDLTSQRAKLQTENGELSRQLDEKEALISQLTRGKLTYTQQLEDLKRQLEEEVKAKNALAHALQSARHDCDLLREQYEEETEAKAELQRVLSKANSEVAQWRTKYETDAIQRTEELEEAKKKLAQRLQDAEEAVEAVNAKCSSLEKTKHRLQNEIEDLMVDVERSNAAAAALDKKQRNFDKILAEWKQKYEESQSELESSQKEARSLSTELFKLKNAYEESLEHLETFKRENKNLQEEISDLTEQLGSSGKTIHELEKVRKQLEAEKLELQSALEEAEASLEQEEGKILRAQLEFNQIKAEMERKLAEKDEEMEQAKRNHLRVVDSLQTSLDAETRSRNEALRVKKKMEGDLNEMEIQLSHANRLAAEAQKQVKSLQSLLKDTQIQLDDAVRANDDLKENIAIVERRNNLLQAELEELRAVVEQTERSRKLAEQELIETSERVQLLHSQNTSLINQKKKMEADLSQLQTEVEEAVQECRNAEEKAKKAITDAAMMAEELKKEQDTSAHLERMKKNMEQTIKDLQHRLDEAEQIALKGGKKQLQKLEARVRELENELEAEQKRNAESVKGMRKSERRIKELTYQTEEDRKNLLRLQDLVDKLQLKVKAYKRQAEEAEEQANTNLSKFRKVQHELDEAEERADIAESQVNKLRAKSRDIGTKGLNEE
Sequence of bovine cardiac myofibrils (full-length cardiac myosin ATPase in the native sarcomere) (P85100 whole entry partner): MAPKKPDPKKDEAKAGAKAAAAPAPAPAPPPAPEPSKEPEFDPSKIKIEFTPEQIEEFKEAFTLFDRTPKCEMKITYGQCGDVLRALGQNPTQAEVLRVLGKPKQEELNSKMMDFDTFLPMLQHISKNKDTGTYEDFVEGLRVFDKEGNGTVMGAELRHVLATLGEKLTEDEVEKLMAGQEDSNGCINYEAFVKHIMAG
Sequence of bovine cardiac myofibrils (full-length cardiac myosin ATPase in the native sarcomere) (Q3SZE5 whole entry partner): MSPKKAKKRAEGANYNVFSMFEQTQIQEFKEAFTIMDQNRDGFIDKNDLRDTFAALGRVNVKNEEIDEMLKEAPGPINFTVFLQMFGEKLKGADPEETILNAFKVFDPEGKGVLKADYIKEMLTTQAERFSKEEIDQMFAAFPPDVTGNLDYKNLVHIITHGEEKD

| SMILES | CDMF75 IC15 [µM] | IC50 [nM] |
| --- | --- | --- |
| Cn1nccc1C(=O)N[C@@H]1CCc2cc(-c3ccnnc3)ccc21 [Compound 369, (R)-1-methyl-N-(5-(pyridazin-4-yl)-2,3-dihydro-1H-inden-1-yl)-1H-pyrazole-5-carboxamide] | 39.2 | > 39200 |
| Cc1cncc(-c2ccc3c(c2)CC[C@H]3NC(=O)c2ccnn2C)n1 [Compound 382, (R)-1-methyl-N-(5-(6-methylpyrazin-2-yl)-2,3-dihydro-1H-inden-1-yl)-1H-pyrazole-5-carboxamide] | 2.7 | 10100 |
| CN1CCN(C(=O)N[C@@H]2CCc3cc(-c4noc(C(F)F)n4)ccc32)CC1 [Compound 302, (R)-N-(5-(5-(difluoromethyl)-1,2,4-oxadiazol-3-yl)-2,3-dihydro-1H-inden-1-yl)-4-methylpiperazine-1-carboxamide] | 39.2 | > 39200 |
| Cc1c(C(=O)NC2CCc3cc(-c4noc(C(F)F)n4)ccc32)cnn1C (stereo not shown) [Compound 27, N-(5-(5-(difluoromethyl)-1,2,4-oxadiazol-3-yl)-2,3-dihydro-1H-inden-1-yl)-1,5-dimethyl-1H-pyrazole-4-carboxamide] | 0.8 | 3300 |
| CCc1nc(-c2ccc3c(c2)CC[C@H]3NC(=O)c2conc2C)no1 [Compound 566, (R)-N-(5-(5-ethyl-1,2,4-oxadiazol-3-yl)-2,3-dihydro-1H-inden-1-yl)-3-methylisoxazole-4-carboxamide] | 0.2 | 800 |
| Cc1nn(C)cc1C(=O)N[C@@H]1CCc2cc(-c3noc(C(F)F)n3)ccc21 [Compound 90, (R)-N-(5-(5-(difluoromethyl)-1,2,4-oxadiazol-3-yl)-2,3-dihydro-1H-inden-1-yl)-1,3-dimethyl-1H-pyrazole-4-carboxamide] | 0.4 | 1900 |
| CC(=O)N[C@@H]1CCc2cc(-c3noc(C(F)F)n3)ccc21 [Compound 286, (R)-N-(5-(5-(difluoromethyl)-1,2,4-oxadiazol-3-yl)-2,3-dihydro-1H-inden-1-yl)acetamide] | 2.1 | 10200 |
| Cc1cc(-c2ccc3c(c2)CC[C@H]3NC(=O)c2ocnc2C)no1 [Compound 418, (R)-4-methyl-N-(5-(5-methylisoxazol-3-yl)-2,3-dihydro-1H-inden-1-yl)oxazole-5-carboxamide] | 0.3 | 1200 |
| [2H]C([2H])([2H])c1noc(-c2ccc3c(c2)CC[C@H]3NC(=O)c2oncc2C)n1 [Compound 275, (R)-4-methyl-N-(5-(3-(methyl-d3)-1,2,4-oxadiazol-5-yl)-2,3-dihydro-1H-inden-1-yl)isoxazole-5-carboxamide] | 0.8 | 2900 |
| Cc1nc(-c2ccc3c(c2)OC[C@H]3NC(=O)c2conc2C)no1 [Compound 347, (S)-3-methyl-N-(6-(5-methyl-1,2,4-oxadiazol-3-yl)-2,3-dihydrobenzofuran-3-yl)isoxazole-4-carboxamide] | 0.5 | 1600 |
| CCc1nc(-c2ccc3c(c2)CC[C@H]3NC(=O)c2ccc(C)nc2)no1 [Compound 625, (R)-N-(5-(5-ethyl-1,2,4-oxadiazol-3-yl)-2,3-dihydro-1H-inden-1-yl)-6-methylnicotinamide] | 0.8 | 3000 |
| CCc1nc(-c2ccc3c(c2)CC[C@H]3NC(=O)c2ccc(=O)[nH]c2)no1 [Compound 604, (R)-N-(5-(5-ethyl-1,2,4-oxadiazol-3-yl)-2,3-dihydro-1H-inden-1-yl)-6-oxo-1,6-dihydropyridine-3-carboxamide] | 0.3 | 900 |
| CC(=O)N[C@@H]1COc2cc(-c3noc(C4CC4)n3)ccc21 [Compound 457, (S)-N-(6-(5-cyclopropyl-1,2,4-oxadiazol-3-yl)-2,3-dihydrobenzofuran-3-yl)acetamide] | 1.2 | 5300 |
| CCc1nc(-c2ccc3c(c2)OC[C@H]3NC(C)=O)no1 [Compound 443, (S)-N-(6-(5-ethyl-1,2,4-oxadiazol-3-yl)-2,3-dihydrobenzofuran-3-yl)acetamide] | 0.7 | 2600 |
| Cc1nc(-c2ccc3c(c2)OCC3NC(=O)c2nnn(C)n2)no1 (stereo not shown) [Compound 199, 2-methyl-N-(6-(5-methyl-1,2,4-oxadiazol-3-yl)-2,3-dihydrobenzofuran-3-yl)-2H-tetrazole-5-carboxamide] | 6.0 | 24100 |
| CCc1nc(-c2ccc3c(c2)CC[C@H]3NC(=O)c2ccnc(OC)c2)no1 [Compound 557, (R)-N-(5-(5-ethyl-1,2,4-oxadiazol-3-yl)-2,3-dihydro-1H-inden-1-yl)-2-methoxyisonicotinamide] | 0.4 | 1400 |

| SMILES | CDMF75 IC15 [µM] | IC50 [nM] |
| --- | --- | --- |
| CCc1cc(-c2ccc3c(c2)OC[C@H]3NC(=O)c2ocnc2C)no1 [Compound 424, (S)-N-(6-(5-ethylisoxazol-3-yl)-2,3-dihydrobenzofuran-3-yl)-4-methyloxazole-5-carboxamide] | 0.2 | 600 |
| Cc1nn(C)cc1C(=O)N[C@@H]1COc2cc(-c3noc(C(F)F)n3)ccc21 [Compound 208, (S)-N-(6-(5-(difluoromethyl)-1,2,4-oxadiazol-3-yl)-2,3-dihydrobenzofuran-3-yl)-1,3-dimethyl-1H-pyrazole-4-carboxamide] | 0.5 | 1600 |
| CCc1nc(-c2ccc3c(c2)CC[C@H]3NC(=O)c2ccc(=O)n(CC(=O)O)c2)no1 [Compound 614, (R)-2-(5-((5-(5-ethyl-1,2,4-oxadiazol-3-yl)-2,3-dihydro-1H-inden-1-yl)carbamoyl)-2-oxopyridin-1(2H)-yl)acetic acid] | 3.4 | 14700 |
| Cc1ncoc1C(=O)N[C@@H]1COc2cc(-c3noc(C(F)F)n3)ccc21 [Compound 453, (S)-N-(6-(5-(difluoromethyl)-1,2,4-oxadiazol-3-yl)-2,3-dihydrobenzofuran-3-yl)-4-methyloxazole-5-carboxamide] | 0.2 | 700 |
| Cc1cc(C(=O)NC2CCc3cc(-c4noc(C(F)F)n4)ccc32)cnn1 (stereo not shown) [Compound 37, N-(5-(5-(difluoromethyl)-1,2,4-oxadiazol-3-yl)-2,3-dihydro-1H-inden-1-yl)-6-methylpyridazine-4-carboxamide] | 2.1 | 9700 |
| CCc1nc(-c2ccc3c(c2)CC[C@H]3NC(=O)c2ccnc(Cl)c2)no1 [Compound 647, (R)-2-chloro-N-(5-(5-ethyl-1,2,4-oxadiazol-3-yl)-2,3-dihydro-1H-inden-1-yl)isonicotinamide] | 0.3 | 900 |
| CCc1nc(-c2ccc3c(c2)CC[C@H]3NC(=O)c2ncc(C)s2)no1 [Compound 640, (R)-N-(5-(5-ethyl-1,2,4-oxadiazol-3-yl)-2,3-dihydro-1H-inden-1-yl)-5-methylthiazole-2-carboxamide] | 0.5 | 2100 |
| COCc1nc(-c2ccc3c(c2)CC[C@H]3NC(=O)c2cccc(CO)c2)no1 [Compound 668, (R)-3-(hydroxymethyl)-N-(5-(5-(methoxymethyl)-1,2,4-oxadiazol-3-yl)-2,3-dihydro-1H-inden-1-yl)benzamide] | 0.6 | 2200 |
| Cc1nc(-c2ccc3c(c2)OC[C@@H]3NC(=O)c2oc(C)nc2C)no1 [Compound 160, (R)-2,4-dimethyl-N-(6-(5-methyl-1,2,4-oxadiazol-3-yl)-2,3-dihydrobenzofuran-3-yl)oxazole-5-carboxamide] | 6.5 | 31300 |
| O=C(N[C@@H]1CCc2cc(-c3noc(C(F)F)n3)ccc21)c1cc(CO)ccn1 [Compound 667, (R)-N-(5-(5-(difluoromethyl)-1,2,4-oxadiazol-3-yl)-2,3-dihydro-1H-inden-1-yl)-4-(hydroxymethyl)picolinamide] | 0.9 | 3700 |
| Cc1ncc(C(=O)N[C@@H]2CCc3cc(-c4noc(C5(C)CC5)n4)ccc32)o1 [Compound 465, (R)-2-methyl-N-(5-(5-(1-methylcyclopropyl)-1,2,4-oxadiazol-3-yl)-2,3-dihydro-1H-inden-1-yl)oxazole-5-carboxamide] | 0.7 | 2600 |
| Cc1ncc(C(=O)N[C@@H]2CCc3cc(-c4noc(C(C)C)n4)ccc32)o1 [Compound 391, (R)-N-(5-(5-isopropyl-1,2,4-oxadiazol-3-yl)-2,3-dihydro-1H-inden-1-yl)-2-methyloxazole-5-carboxamide] | 1.3 | 4600 |
| CCc1nc(-c2ccc3c(c2)CC[C@H]3NC(=O)c2cn(CCOC)nc2C)no1 [Compound 596, (R)-N-(5-(5-ethyl-1,2,4-oxadiazol-3-yl)-2,3-dihydro-1H-inden-1-yl)-1-(2-methoxyethyl)-3-methyl-1H-pyrazole-4-carboxamide] | 0.8 | 2500 |
| Cc1ncc(C(=O)N[C@@H]2CCc3cc(-c4noc(C(F)F)n4)ccc32)n1C [Compound 678, (R)-N-(5-(5-(difluoromethyl)-1,2,4-oxadiazol-3-yl)-2,3-dihydro-1H-inden-1-yl)-1,2-dimethyl-1H-imidazole-5-carboxamide] | 0.7 | 2300 |
| CCc1nc(-c2ccc3c(c2)CC[C@H]3NC(=O)c2cnc(O)o2)no1 [Compound 638, (R)-N-(5-(5-ethyl-1,2,4-oxadiazol-3-yl)-2,3-dihydro-1H-inden-1-yl)-2-hydroxyoxazole-5-carboxamide] | 1.0 | 3900 |
| CCc1nc(-c2ccc3c(c2)CC[C@H]3NC(=O)c2cccc(C(O)CO)c2)no1 (stereo partly drawn) [Compound 700, 3-(1,2-dihydroxyethyl)-N-((R)-5-(5-ethyl-1,2,4-oxadiazol-3-yl)-2,3-dihydro-1H-inden-1-yl)benzamide] | 0.7 | 2600 |
